From patent publication US10865384B2, “2,4,5-tri-substituted azole-based casein kinase 1 inhibitors as inducers for cardiomyogenesis” (AGENCY FOR SCIENCE, TECHNOLOGY AND RESEARCH, priority 2014, dated 2020)
Like-named read-outs stand apart in the source and are kept apart here.

Assays:
p38α MAPK = p38α MAPK (Homo sapiens (Human), UniProt Q16539); experiment: HitHunter p38 MAP kinase binding assay; conditions: read-out: p38α MAPK IC50 ± SEM
CK1δ = CK1δ (Homo sapiens (Human), UniProt P48730); experiment: LanthaScreen Eu kinase binding assay, CK1δ
Sequence of CK1δ (P48730 whole entry): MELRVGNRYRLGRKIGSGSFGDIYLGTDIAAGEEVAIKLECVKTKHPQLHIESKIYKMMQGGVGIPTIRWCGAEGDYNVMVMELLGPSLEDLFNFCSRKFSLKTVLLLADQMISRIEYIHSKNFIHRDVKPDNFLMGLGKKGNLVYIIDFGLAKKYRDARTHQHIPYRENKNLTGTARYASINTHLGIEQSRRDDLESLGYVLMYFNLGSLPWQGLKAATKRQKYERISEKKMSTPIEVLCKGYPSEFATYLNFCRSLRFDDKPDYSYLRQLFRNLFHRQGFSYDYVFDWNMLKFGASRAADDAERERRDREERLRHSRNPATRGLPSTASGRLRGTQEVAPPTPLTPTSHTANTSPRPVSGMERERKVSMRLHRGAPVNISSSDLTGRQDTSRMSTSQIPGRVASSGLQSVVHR

CK1ϵ = CK1ϵ (Homo sapiens (Human), UniProt P49674); experiment: LanthaScreen Eu kinase binding assay, CK1ϵ
Sequence of CK1ϵ (P49674 whole entry): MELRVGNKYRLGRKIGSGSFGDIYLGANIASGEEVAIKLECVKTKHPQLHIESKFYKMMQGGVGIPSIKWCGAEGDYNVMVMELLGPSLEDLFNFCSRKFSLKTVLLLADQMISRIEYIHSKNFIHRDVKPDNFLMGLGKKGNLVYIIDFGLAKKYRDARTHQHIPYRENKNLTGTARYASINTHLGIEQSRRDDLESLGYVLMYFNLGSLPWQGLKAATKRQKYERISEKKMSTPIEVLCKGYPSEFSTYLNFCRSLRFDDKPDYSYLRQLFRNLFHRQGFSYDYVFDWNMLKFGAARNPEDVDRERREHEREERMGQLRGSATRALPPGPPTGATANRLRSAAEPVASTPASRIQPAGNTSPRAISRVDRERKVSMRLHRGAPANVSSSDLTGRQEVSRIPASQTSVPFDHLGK

hESC3 Nkx2.5eGFP/w cells = experiment: Differentiation in 96-U bottom ultra-low attachment well plates, GFP area imaging; format: cell-based, human; conditions: 5 μM; for Average GFP %: after CHIR99021, read on day 14, GFP area over embryoid body size; for Average GFP μm^2 / Average Area μm^2: day 14; for Average Area μm^2: embryoid body size; for Cardiogenic properties: at specific time course (induction day 2 or 3)

Sequence of p38α MAPK (Q16539 whole entry, looked up): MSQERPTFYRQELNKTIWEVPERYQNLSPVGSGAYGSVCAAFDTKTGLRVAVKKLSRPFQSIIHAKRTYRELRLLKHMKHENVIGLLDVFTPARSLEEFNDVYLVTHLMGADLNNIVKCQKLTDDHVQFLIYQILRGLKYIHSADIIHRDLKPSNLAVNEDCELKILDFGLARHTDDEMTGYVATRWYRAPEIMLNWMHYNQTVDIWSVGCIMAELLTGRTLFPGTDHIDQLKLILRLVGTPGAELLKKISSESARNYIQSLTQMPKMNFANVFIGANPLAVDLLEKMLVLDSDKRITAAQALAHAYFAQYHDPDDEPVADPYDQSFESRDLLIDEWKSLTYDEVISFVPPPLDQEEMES

SMILES | Average GFP % (hESC3 Nkx2.5eGFP/w cells; Induction Day 2) [%] | Average GFP μm^2 (hESC3 Nkx2.5eGFP/w cells; Induction Day 2) [μm^2] | Average Area μm^2 (hESC3 Nkx2.5eGFP/w cells; Induction Day 2) [μm^2] | Average GFP % (hESC3 Nkx2.5eGFP/w cells; Induction Day 3) [%] | Average GFP μm^2 (hESC3 Nkx2.5eGFP/w cells; Induction Day 3) [μm^2] | Average Area μm^2 (hESC3 Nkx2.5eGFP/w cells; Induction Day 3) [μm^2] | also measured
Cc1cccc(-c2nc(-c3ccc4ccccc4c3)[nH]c2-c2ccncc2)c1 [IM-01, 4-(2-(naphthalen-2-yl)-4(5)-(m-tolyl)-1H-imidazol-5(4)-yl)pyridine] |  |  |  |  |  |  | IC50 (p38α MAPK): 98 ± 11 nM; inhibition at 1 µM (CK1δ): 5%; inhibition at 1 µM (CK1ϵ): 6%
Fc1c(-c2nc(-c3cccc(C(F)(F)F)c3)c(-c3ccncc3)[nH]2)ccc2ccccc12 [IM-02, 4-(2-(1-fluoronaphthalen-2-yl)-4(5)-(3-(trifluoromethyl)phenyl)-1H-imidazol-5(4)-yl)pyridine] |  |  |  |  |  |  | IC50 (p38α MAPK): 2660 ± 466 nM; CK1δ inhibition at 1 μM (CK1δ): No inhibition at 1 μM; CK1ϵ inhibition at 1 μM (CK1ϵ): No inhibition at 1 μM
Cc1cccc(-c2nc(-c3ccc4ccccc4c3F)[nH]c2C2=CCOCC2)c1 [IM-03, 5(4)-(3,6-dihydro-2H-pyran-4-yl)-2-(1-fluoronaphthalen-2-yl)-4(5)-(m-tolyl)-1H-imidazole] |  |  |  |  |  |  | IC50 (p38α MAPK): 262 ± 73 nM; CK1δ inhibition at 1 μM (CK1δ): No inhibition at 1 μM; CK1ϵ inhibition at 1 μM (CK1ϵ): No inhibition at 1 μM
Cc1cccc(-c2nc(-c3ccc4ccccc4c3F)[nH]c2-c2ccncc2)c1 [IM-04] |  |  |  |  |  |  | IC50 (p38α MAPK): 20 ± 7 nM; IC50 (CK1δ; Table 3, read-out: IC50 CK1δ): 490 nM; IC50 (CK1δ; read-out: CK1δ IC50 ± SEM): 490 ± 66 nM; IC50 (CK1ϵ; Table 3, read-out: IC50 Ck1ε): 277 nM; IC50 (CK1ϵ; read-out: CK1ϵ IC50 ± SEM): 277 ± 40 nM
Cc1cccc(-c2nc(-c3ccccc3F)[nH]c2C2=CCOCC2)c1 [IM-06, 5(4)-(3,6-dihydro-2H-pyran-4-yl)-2-(2-fluorophenyl)-4(5)-(m-tolyl)-1H-imidazole] |  |  |  |  |  |  | IC50 (p38α MAPK): 90 ± 20 nM; inhibition at 1 µM (CK1δ): 3%; CK1ϵ inhibition at 1 μM (CK1ϵ): No inhibition at 1 μM
O=C(Nc1cccc2cccnc12)c1ccc(N2C(=O)[C@@H]3[C@H](C2=O)[C@@H]2C=C[C@H]3C2)cc1 [IWR-1, reference compound] | 41.3 | 308.9 | 763.0 | 51.1 | 426.3 | 831.4 | 
CCc1nc(-c2cccc(C)c2)c(-c2ccnc(NC(=O)c3ccccc3)c2)s1 [TAK 715, reference compound] |  |  |  |  |  |  | IC50 (CK1ϵ; Table 3, read-out: IC50 Ck1ε): 107 nM
Fc1ccc(-c2nc(-c3ccccc3)[nH]c2-c2ccncc2)cc1 [ZQX-14, 4-[4(5)-(4-fluorophenyl)-2-phenyl-1H-imidazol-5(4)-yl]pyridine] | 42.4 | 335.6 | 810.7 | 5.9 | 91.6 | 1474.4 | 
Fc1ccc(-c2nc(-c3c(Cl)cccc3Cl)[nH]c2-c2ccncc2)cc1 [ZQX-15, 4-[2-(2,6-dichlorophenyl)-4(5)-(4-fluorophenyl)-1H-imidazol-5(4)-yl]pyridine] | 0.0 | 0.0 | 129.4 | 0.0 | 0.0 | 384.0 | 
COc1ccccc1-c1nc(-c2ccc(F)cc2)c(-c2ccncc2)[nH]1 [ZQX-16, 4-[2-(2-methoxyphenyl)-4(5)-(4-fluorophenyl)-1H-imidazol-5(4)-yl]pyridine] | 32.8 | 184.7 | 576.1 | 14.5 | 125.6 | 950.3 | 
Fc1ccc(-c2nc(-c3ccccc3Cl)[nH]c2-c2ccncc2)cc1 [ZQX-17, 4-[2-(2-chlorophenyl)-4(5)-(4-fluorophenyl)-1H-imidazol-5(4)-yl]pyridine] | 30.4 | 183.0 | 586.7 | 24.6 | 232.7 | 971.6 | 
COc1cccc(OC)c1-c1nc(-c2ccc(F)cc2)c(-c2ccncc2)[nH]1 [ZQX-18, 4-[2-(2,6-dimethoxyphenyl)-4(5)-(4-fluorophenyl)-1H-imidazol-5(4)-yl]pyridine] | 27.5 | 207.3 | 579.4 | 15.4 | 143.4 | 1065.1 | 
Fc1ccc(-c2nc(-c3c(F)cccc3Cl)[nH]c2-c2ccncc2)cc1 [ZQX-19, 4-[2-(2-chloro-6-fluorophenyl)-4(5)-(4-fluorophenyl)-1H-imidazol-5(4)-yl]pyridine] | 2.4 | 46.4 | 903.3 | 32.7 | 511.6 | 1616.9 | Cardiogenic properties (hESC3 Nkx2.5eGFP/w cells): higher cardiogenic properties as SB203580 and IWP-2
COc1cccc(F)c1-c1nc(-c2ccc(F)cc2)c(-c2ccncc2)[nH]1 [ZQX-20, 4-[2-(2-fluoro-6-methoxyphenyl)-4(5)-(4-fluorophenyl)-1H-imidazol-5(4)-yl]pyridine] | 26.0 | 286.8 | 1145.3 | 37.3 | 331.1 | 996.2 | Cardiogenic properties (hESC3 Nkx2.5eGFP/w cells): higher cardiogenic properties as SB203580 and IWP-2
Fc1ccc(-c2nc(-c3c(F)cccc3Br)[nH]c2-c2ccncc2)cc1 [ZQX-21, 4-[2-(2-bromo-6-fluorophenyl)-4(5)-(4-fluorophenyl)-1H-imidazol-5(4)-yl]pyridine] | 0.0 | 0.0 | 1383.8 | 3.4 | 16.9 | 974.3 | 
Fc1ccc(-c2nc(-c3ccccc3Br)[nH]c2-c2ccncc2)cc1 [ZQX-22, 4-[2-(2-bromophenyl)-4(5)-(4-fluorophenyl)-1H-imidazol-5(4)-yl]pyridine] | 26.2 | 166.5 | 623.0 | 24.4 | 284.4 | 1165.0 | 
O=[N+]([O-])c1cccc(Cl)c1-c1nc(-c2ccc(F)cc2)c(-c2ccncc2)[nH]1 [ZQX-25, 4-[2-(2-chloro-6-nitrophenyl)-4(5)-(4-fluorophenyl)-1H-imidazol-5(4)-yl]pyridine] | 0.0 | 0.0 | 544.3 | 15.6 | 163.6 | 1105.4 | 
COc1cc(O)c(-c2nc(-c3ccc(F)cc3)c(-c3ccncc3)[nH]2)c(OC)c1 [ZQX-26, 2-[4(5)-(4-fluorophenyl)-5(4)-(pyridin-4-yl)-1H-imidazol-2-yl]-3,5-dimethoxyphenol] | 30.9 | 233.9 | 757.8 | 8.3 | 88.2 | 1152.7 | 
O=[N+]([O-])c1ccccc1-c1nc(-c2ccc(F)cc2)c(-c2ccncc2)[nH]1 [ZQX-27, 4-[4(5)-(4-fluorophenyl)-2-(2-nitrophenyl)-1H-imidazol-5(4)-yl]pyridine] | 15.1 | 258.6 | 1469.4 | 3.4 | 57.9 | 1758.3 | 
Cc1cccc(C)c1-c1nc(-c2ccc(F)cc2)c(-c2ccncc2)[nH]1 [ZQX-28, 4-[2-(2,6-dimethylphenyl)-4(5)-(4-fluorophenyl)-1H-imidazol-5(4)-yl]pyridine] | 0.0 | 0.0 | 302.4 | 2.1 | 6.1 | 271.7 | 
Cc1ccccc1-c1nc(-c2ccc(F)cc2)c(-c2ccncc2)[nH]1 [ZQX-29, 4-[4(5)-(4-fluorophenyl)-2-(2-methylphenyl)-1H-imidazol-5(4)-yl]pyridine] | 28.6 | 277.1 | 876.4 | 2.7 | 39.9 | 1296.6 | 
Fc1ccc(-c2nc(-c3c(F)cccc3I)[nH]c2-c2ccncc2)cc1 [ZQX-30, 4-[2-(2-fluoro-6-iodophenyl)-4(5)-(4-fluorophenyl)-1H-imidazol-5(4)-yl]pyridine] | 4.6 | 60.9 | 1361.8 | 12.6 | 128.3 | 1142.4 | 
Nc1ccccc1-c1nc(-c2ccc(F)cc2)c(-c2ccncc2)[nH]1 [ZQX-31, 4-[2-(2-aminophenyl)-4(5)-(4-fluorophenyl)-1H-imidazol-5(4)-yl]pyridine] | 28.9 | 258.3 | 891.2 | 5.1 | 96.0 | 1662.3 | 
COc1ccc([N+](=O)[O-])cc1-c1nc(-c2ccc(F)cc2)c(-c2ccncc2)[nH]1 [ZQX-32, 4-[2-(2-methoxy-5-nitrophenyl)-4(5)-(4-fluorophenyl)-1H-imidazol-5(4)-yl]pyridine] | 32.8 | 157.6 | 483.6 | 4.6 | 41.0 | 790.4 | 
